Consider four molecules from BindingDB's records for doi:10.1021/cb700072n (University of New Mexico Health Sciences Center, 2007).

One test has as its target T1, Estrogen receptor (Homo sapiens, UniProt P03372).
T1 sequence (P03372 whole entry): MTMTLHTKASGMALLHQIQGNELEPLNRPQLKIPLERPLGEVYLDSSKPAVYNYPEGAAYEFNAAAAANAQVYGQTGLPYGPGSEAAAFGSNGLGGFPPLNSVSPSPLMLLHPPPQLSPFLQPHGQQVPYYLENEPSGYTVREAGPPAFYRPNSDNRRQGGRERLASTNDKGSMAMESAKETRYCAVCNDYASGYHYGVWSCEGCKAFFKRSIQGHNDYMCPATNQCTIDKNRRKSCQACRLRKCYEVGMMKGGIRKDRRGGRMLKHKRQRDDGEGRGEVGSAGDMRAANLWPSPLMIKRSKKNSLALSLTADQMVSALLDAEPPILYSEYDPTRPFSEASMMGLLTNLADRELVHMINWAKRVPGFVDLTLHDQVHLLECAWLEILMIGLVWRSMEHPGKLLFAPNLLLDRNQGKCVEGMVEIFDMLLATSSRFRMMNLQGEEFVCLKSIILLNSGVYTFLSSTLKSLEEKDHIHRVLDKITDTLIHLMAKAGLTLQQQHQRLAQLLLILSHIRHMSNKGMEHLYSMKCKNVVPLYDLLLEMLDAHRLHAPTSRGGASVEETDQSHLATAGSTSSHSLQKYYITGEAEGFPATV
In words: Competitive Binding Assay. As for the experimental part: (§1) Competitive binding of estrogen to GPR30 and ER alpha were conducted using COS-7 cells transfected with GPR30-GFP or ER alpha-GFP and fluorescent estrogen, E2-Alexa633 labeled as a reporter.

The target of test [1] is G-protein coupled estrogen receptor 1 (Homo sapiens, UniProt Q99527). In words: Competitive Binding Assay. As for the experimental part: as §1

pKi: −log10 of the molar value.

Chain of G-protein coupled estrogen receptor 1 (Q99527 whole entry): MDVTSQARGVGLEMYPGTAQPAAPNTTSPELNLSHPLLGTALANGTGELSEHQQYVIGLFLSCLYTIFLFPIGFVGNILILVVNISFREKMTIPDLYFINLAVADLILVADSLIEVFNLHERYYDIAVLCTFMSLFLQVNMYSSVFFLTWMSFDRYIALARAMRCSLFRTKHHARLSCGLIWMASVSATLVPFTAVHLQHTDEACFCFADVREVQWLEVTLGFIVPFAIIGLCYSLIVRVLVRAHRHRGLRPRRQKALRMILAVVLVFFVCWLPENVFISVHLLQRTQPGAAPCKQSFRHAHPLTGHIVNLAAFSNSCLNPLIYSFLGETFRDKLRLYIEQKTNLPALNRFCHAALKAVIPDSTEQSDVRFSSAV

For orientation: pKi means the negative decadic logarithm of the Ki, by convention in mol/L. Low values mean a large Ki, high ones a small Ki. With `C[C@]12CCC3c4ccc(O)cc4CCC3C1CC[C@@]2(O)C#Cc1cccc(C(=O)O)c1` (stereo partly drawn) [E2-COO-], the pKi at Estrogen receptor was 8.70; in test [1] it was 7.52.

As for `CC(C)(C)OC(=O)NCc1ccc(C#C[C@]2(O)CCC3C4CCc5cc(O)ccc5C4CC[C@@]32C)cc1` (stereo partly drawn) [E2-NB], the negative logarithm of the Ki (pKi) was 8.57 on Estrogen receptor and 7.80 in test [1].

With `C[C@]12CCC3c4ccc(O)cc4CCC3C1CC[C@@]2(O)C#Cc1ccc(CN)cc1` (stereo partly drawn) [E2-NH3+], the negative logarithm of the Ki (pKi) at Estrogen receptor was 8.39; in test [1], 7.60.

As for `C[C@]12CCC3c4ccc(O)cc4CCC3C1CC[C@@]2(O)C#Cc1ccc([N+](C)(C)C)cc1` (stereo partly drawn) [E2-NMe3+], the values for the pKi (at Estrogen receptor; in test [1]) were 8.85 and 7.77, respectively.
